Results from patent US6616922B2, “Antibacterial compositions” (The Dial Corporation, priority 2001, dated 2003).

Columns and labels:
E. coli = experiment: Time kill test (rapid germicidal activity) against E. coli; assay type: cell-based, Escherichia coli; settings: 2% active aqueous solution
Protocol: (§1) a) Determination of Rapid Germicidal (Time Kill) Activity of Antibacterial Products. The activity of antibacterial compositions was measured by the time kill method, whereby the survival of challenged organisms exposed to an antibacterial test composition is determined as a function of time. In this test, a diluted aliquot of the composition is brought into contact with a known population of test bacteria for a specified time period at a specified temperature. The test composition is neutralized at the end of the time period, which arrests the antibacterial activity of the composition. The percent or, alternatively, log reduction from the original bacteria population is calculated. In general, the time kill method is known to those skilled in the art. The composition can be tested at any concentration from 0-100%. The choice of which concentration to use is at the discretion of the investigator, and suitable concentrations are readily determined by those skilled in the art. […] The test sample is placed in a sterile 250 ml beaker equipped with a magnetic stirring bar and the sample volume is brought to 100 ml, if needed, with sterile deionized water. All testing is performed in triplicate, the results are combined, and the average log reduction is reported. The choice of contact time period also is at the discretion of the investigator. Any contact time period can be chosen. […] The contact temperature also can be any temperature, typically room temperature, or about 25 degrees Celsius. The bacterial suspension, or test inoculum, is prepared by growing a bacterial culture on any appropriate solid media (e.g., agar). The bacterial population then is washed from the agar with sterile physiological saline and the population of the bacterial suspension is adjusted to about 10^8 colony forming units per ml (cfu/ml). The table below lists-the test bacterial cultures used in the following tests and includes the name of the bacteria, the ATCC (American Type Culture Collection) identification number, and the abbreviation for the name of the organism used hereafter. [table] The beaker containing the test composition is placed in a water bath (if constant temperature is desired), or placed on a magnetic stirrer (if ambient laboratory temperature is desired). The sample then is inoculated with 1.0 ml of the test bacteria suspension. The inoculum is stirred with the test composition for the predetermined contact time. […] Decimal dilutions to a countable range then are made. The dilutions can differ for different organisms. Plate selected dilutions in triplicate on TSA+ plates (TSA+ is Trypticase Soy Agar with Lecithin and Polysorbate 80). […] The control count (numbers control) is determined by conducting the procedure as described above with the exception that THT is used in place of the test composition. The plate counts are converted to cfu/ml for the numbers control and samples, respectively, by standard microbiological methods. The log reduction is calculated using the formula Log reduction=log10 (numbers control)−log10 (test sample survivors).

S. aureus = experiment: Time kill test (rapid germicidal activity) against S. aureus; assay type: cell-based, Staphylococcus aureus; settings: 2% active aqueous solution
Protocol: as §1

Substance: Lauramine oxide
- log reduction after 30 seconds E. coli (E. coli; pH 4.93, 30 seconds): >5.32 log
- log reduction after 30 seconds E. coli (E. coli; pH 5.50, 30 seconds): >4.70 log
- log reduction after 30 seconds E. coli (E. coli; pH 6.02, 30 seconds): >4.70 log
- log reduction after 30 seconds E. coli (E. coli; pH 6.5, 30 seconds): >4.70 log
- log reduction after 30 seconds E. coli (E. coli; pH 7.0, 30 seconds): >5.32 log
- log reduction after 30 seconds E. coli (E. coli; pH 7.53, 30 seconds): 0.88 log
- log reduction after 30 seconds E. coli (E. coli; pH 8.94, 30 seconds): 0.27 log
- log reduction after 30 seconds E. coli (E. coli; pH 10.14, 30 seconds): 0.11 log
- log reduction after 30 seconds S. aureus (S. aureus; pH 4.93, 30 seconds): 2.11 log
- log reduction after 30 seconds S. aureus (S. aureus; pH 5.50, 30 seconds): >4.38 log
- log reduction after 30 seconds S. aureus (S. aureus; pH 6.02, 30 seconds): >4.39 log
- log reduction after 30 seconds S. aureus (S. aureus; pH 6.5, 30 seconds): >4.39 log
- log reduction after 30 seconds S. aureus (S. aureus; pH 7.0, 30 seconds): >4.39 log
- log reduction after 30 seconds S. aureus (S. aureus; pH 7.53, 30 seconds): >4.39 log
- log reduction after 30 seconds S. aureus (S. aureus; pH 8.94, 30 seconds): 4.33 log
- log reduction after 30 seconds S. aureus (S. aureus; pH 10.14, 30 seconds): 3.75 log
